Results taken from US12077555B2, “STAT degraders and uses thereof” (Kymera Therapeutics, Inc., priority 2019, dated 2024).

Biological target: STAT3 (Homo sapiens, UniProt P40763)
Assay: STAT3 HiBiT degradation assay in transfected A549 cells
Assay type: cell-based
Design: expressed in transfected cells; host or cells: A549
Conditions: A549, 24 h; read-out: STAT3 HiBiT A549 degradation 24 h: Average external-Abs DC50
Method in brief: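 Degradation read as HiBiT-tagged STAT3 luminescence (Nano-Glo lytic reagent, 10 min, room temperature) following 24 h compound treatment of transfected A549 cells at 3-fold, 10 points. Percent remaining signal computed against controls and fitted with a four-parameter logistic; DC50 reported as letter bins (A <0.01 to D >1.0 µM).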

Chain of STAT3 (P40763 whole entry): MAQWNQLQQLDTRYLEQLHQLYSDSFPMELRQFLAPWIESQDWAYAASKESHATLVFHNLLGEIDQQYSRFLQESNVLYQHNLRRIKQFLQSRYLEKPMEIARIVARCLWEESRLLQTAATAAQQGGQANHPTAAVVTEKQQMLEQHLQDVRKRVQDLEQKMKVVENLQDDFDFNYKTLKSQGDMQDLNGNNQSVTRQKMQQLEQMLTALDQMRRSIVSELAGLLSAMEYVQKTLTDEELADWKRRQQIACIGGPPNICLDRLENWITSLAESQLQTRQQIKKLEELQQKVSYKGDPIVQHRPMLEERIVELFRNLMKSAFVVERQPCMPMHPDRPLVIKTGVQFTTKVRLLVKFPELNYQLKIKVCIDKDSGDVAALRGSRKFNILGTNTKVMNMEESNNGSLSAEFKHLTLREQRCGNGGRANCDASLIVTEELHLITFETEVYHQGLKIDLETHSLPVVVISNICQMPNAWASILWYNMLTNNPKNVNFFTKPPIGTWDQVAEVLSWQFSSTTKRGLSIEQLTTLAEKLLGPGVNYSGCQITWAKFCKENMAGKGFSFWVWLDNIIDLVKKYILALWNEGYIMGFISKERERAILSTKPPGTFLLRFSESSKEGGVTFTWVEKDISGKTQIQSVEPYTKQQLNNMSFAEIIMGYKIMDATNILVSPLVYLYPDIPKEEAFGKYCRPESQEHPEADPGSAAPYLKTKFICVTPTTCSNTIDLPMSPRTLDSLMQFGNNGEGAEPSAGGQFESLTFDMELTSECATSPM

| Structure (SMILES) | DC50 [nM] |
| --- | --- |
| Cc1ncsc1-c1ccc([C@H](C)NC(=O)[C@@H]2C[C@@H](O)CN2C(=O)[C@@H](NC(=O)CCCCCc2cccc(NC(=O)[C@H](CCC(N)=O)NC(=O)[C@@H]3Cc4cccc5c4N3C(=O)[C@@H](NC(=O)c3cc4cc(C(=O)P(=O)(O)O)ccc4[nH]3)CC5)c2)C(C)(C)C)cc1 [Compound I-209] | 10 to 100 |
| Cc1ncsc1-c1ccc(CNC(=O)[C@@H]2C[C@@H](O)CN2C(=O)[C@@H](NC(=O)CCCCCc2cccc(O[C@H](C)[C@H](CCC(N)=O)NC(=O)[C@@H]3Cc4cccc5c4N3C(=O)[C@@H](NC(=O)c3cc4cc(C(=O)P(=O)(O)O)ccc4[nH]3)CC5)c2)C(C)(C)C)cc1 [Compound I-210, 2-[[(2S,11S)-2-[[(3S,4R)-1-carbamoyl-4-[3-(5-[[(2S)-1-[(2S,4R)-4-hydroxy-2-([[4-(4-methyl-1,3-thiazol-5-yl)phenyl]methyl]carbamoyl)pyrrolidin-1-yl]-3,3-dimethyl-1-oxobutan-2-yl]carbamoyl]pentyl)phenoxy]pentan-3-yl]carbamoyl]-12-oxo-1-azatricyclo[6.4.1.0^[4,13]]trideca-4(13),5,7-trien-11-yl]carbamoyl]-1H-indole-5-carbonylphosphonic acid] | > 1000 |
| Cc1ncsc1-c1ccc([C@H](C)NC(=O)[C@@H]2C[C@@H](O)CN2C(=O)[C@@H](NC(=O)CCCCc2cccc(OC[C@H](CCC(N)=O)NC(=O)[C@@H]3Cc4cccc5c4N3C(=O)[C@@H](NC(=O)c3cc4cc(C(=O)P(=O)(O)O)ccc4[nH]3)CC5)c2)C(C)(C)C)cc1 [Compound I-211, diammonium 2-[[(2S,11S)-2-[[(2S)-4-carbamoyl-1-[3-(4-[[(2S)-1-[(2S,4R)-4-hydroxy-2-[[(1S)-1-[4-(4-methyl-1,3-thiazol-5-yl)phenyl]ethyl]carbamoyl]pyrrolidin-1-yl]-3,3-dimethyl-1-oxobutan-2-yl]carbamoyl]butyl)phenoxy]butan-2-yl]carbamoyl]-12-oxo-1-azatricyclo[6.4.1.0^[4,13]]trideca-4(13),5,7-trien-11-yl]carbamoyl]-1H-indole-5-carbonylphosphonate] | 10 to 100 |
| Cc1ccc(OC[C@H](CCC(N)=O)NC(=O)[C@@H]2Cc3cccc4c3N2C(=O)[C@@H](NC(=O)c2cc3cc(C(=O)P(=O)(O)O)ccc3[nH]2)CC4)cc1CCCCCC(=O)N[C@H](C(=O)N1C[C@H](O)C[C@H]1C(=O)N[C@@H](C)c1ccc(-c2scnc2C)cc1)C(C)(C)C [Compound I-212, 2-[[(2S,11S)-2-[[(2S)-4-carbamoyl-1-[3-(5-[[(2S)-1-[(2S,4R)-4-hydroxy-2-[[(1S)-1-[4-(4-methyl-1,3-thiazol-5-yl)phenyl]ethyl]carbamoyl]pyrrolidin-1-yl]-3,3-dimethyl-1-oxobutan-2-yl]carbamoyl]pentyl)-4-methylphenoxy]butan-2-yl]carbamoyl]-12-oxo-1-azatricyclo[6.4.1.0^[4,13]]trideca-4(13),5,7-trien-11-yl]carbamoyl]-1H-indole-5-carbonylphosphonic acid] | 10 to 100 |
| Cc1cc(CCCCCC(=O)N[C@H](C(=O)N2C[C@H](O)C[C@H]2C(=O)N[C@@H](C)c2ccc(-c3scnc3C)cc2)C(C)(C)C)cc(OC[C@H](CCC(N)=O)NC(=O)[C@@H]2Cc3cccc4c3N2C(=O)[C@@H](NC(=O)c2cc3cc(C(=O)P(=O)(O)O)ccc3[nH]2)CC4)c1 [Compound I-213, 2-[[(2S,11S)-2-[[(2S)-4-carbamoyl-1-[3-(5-[[(2S)-1-[(2S,4R)-4-hydroxy-2-[[(1S)-1-[4-(4-methyl-1,3-thiazol-5-yl)phenyl]ethyl]carbamoyl]pyrrolidin-1-yl]-3,3-dimethyl-1-oxobutan-2-yl]carbamoyl]pentyl)-5-methylphenoxy]butan-2-yl]carbamoyl]-12-oxo-1-azatricyclo[6.4.1.0^[4,13]]trideca-4(13),5,7-trien-11-yl]carbamoyl]-1H-indole-5-carbonylphosphonic acid] | < 10 |
| Cc1ccc(CCCCCC(=O)N[C@H](C(=O)N2C[C@H](O)C[C@H]2C(=O)N[C@@H](C)c2ccc(-c3scnc3C)cc2)C(C)(C)C)cc1OC[C@H](CCC(N)=O)NC(=O)[C@@H]1Cc2cccc3c2N1C(=O)[C@@H](NC(=O)c1cc2cc(C(=O)P(=O)(O)O)ccc2[nH]1)CC3 [Compound I-214, 2-[[(2S,11S)-2-[[(2S)-4-carbamoyl-1-[5-(5-[[(2S)-1-[(2S,4R)-4-hydroxy-2-[[(1S)-1-[4-(4-methyl-1,3-thiazol-5-yl)phenyl]ethyl]carbamoyl]pyrrolidin-1-yl]-3,3-dimethyl-1-oxobutan-2-yl]carbamoyl]pentyl)-2-methylphenoxy]butan-2-yl]carbamoyl]-12-oxo-1-azatricyclo[6.4.1.0^[4,13]]trideca-4(13),5,7-trien-11-yl]carbamoyl]-1H-indole-5-carbonylphosphonic acid] | > 1000 |
| Cc1ncsc1-c1ccc([C@H](C)NC(=O)[C@@H]2C[C@@H](O)CN2C(=O)[C@@H](NC(=O)CCCCCc2cc(OC[C@H](CCC(N)=O)NC(=O)[C@@H]3Cc4cccc5c4N3C(=O)[C@@H](NC(=O)c3cc4cc(C(=O)P(=O)(O)O)ccc4[nH]3)CC5)ccc2F)C(C)(C)C)cc1 [Compound I-215] | 10 to 100 |
| Cc1ncsc1-c1ccc([C@H](C)NC(=O)[C@@H]2C[C@@H](O)CN2C(=O)[C@@H](NC(=O)CCCCCc2cc(F)cc(OC[C@H](CCC(N)=O)NC(=O)[C@@H]3Cc4cccc5c4N3C(=O)[C@@H](NC(=O)c3cc4cc(C(=O)P(=O)(O)O)ccc4[nH]3)CC5)c2)C(C)(C)C)cc1 [Compound I-216, 2-[[(2S,11S)-2-[[(2S)-4-carbamoyl-1-[3-fluoro-5-(5-[[(2S)-1-[(2S,4R)-4-hydroxy-2-[[(1S)-1-[4-(4-methyl-1,3-thiazol-5-yl)phenyl]ethyl]carbamoyl]pyrrolidin-1-yl]-3,3-dimethyl-1-oxobutan-2-yl]carbamoyl]pentyl)phenoxy]butan-2-yl]carbamoyl]-12-oxo-1-azatricyclo[6.4.1.0^[4,13]]trideca-4(13),5,7-trien-11-yl]carbamoyl]-1H-indole-5-carbonylphosphonic acid] | 10 to 100 |
| Cc1ncsc1-c1ccc([C@H](C)NC(=O)[C@@H]2C[C@@H](O)CN2C(=O)[C@@H](NC(=O)CCCCCc2cccc(OC[C@H](CCC(N)=O)NC(=O)[C@@H]3Cc4cccc5c4N3C(=O)[C@@H](NC(=O)c3cc4cc(C(=O)P(=O)(O)O)ccc4[nH]3)CC5)c2F)C(C)(C)C)cc1 [Compound I-217, 2-[[(2S,11S)-2-[[(2S)-4-carbamoyl-1-[2-fluoro-3-(5-[[(2S)-1-[(2S,4R)-4-hydroxy-2-[[(1S)-1-[4-(4-methyl-1,3-thiazol-5-yl)phenyl]ethyl]carbamoyl]pyrrolidin-1-yl]-3,3-dimethyl-1-oxobutan-2-yl]carbamoyl]pentyl)phenoxy]butan-2-yl]carbamoyl]-12-oxo-1-azatricyclo[6.4.1.0^[4,13]]trideca-4(13),5,7-trien-11-yl]carbamoyl]-1H-indole-5-carbonylphosphonic acid] | < 10 |
| Cc1cc(CO[C@H](C)[C@H](CCC(N)=O)NC(=O)[C@@H]2Cc3cccc4c3N2C(=O)[C@@H](NC(=O)c2cc3cc(C(=O)P(=O)(O)O)ccc3[nH]2)CC4)ccc1CCCCC(=O)N[C@H](C(=O)N1C[C@H](O)C[C@H]1C(=O)N[C@@H](C)c1ccc(-c2scnc2C)cc1)C(C)(C)C [Compound I-218, diammonium 2-[[(2S,11S)-2-[[(3S,4R)-1-carbamoyl-4-[[4-(4-[[(2S)-1-[(2S,4R)-4-hydroxy-2-[[(1S)-1-[4-(4-methyl-1,3-thiazol-5-yl)phenyl]ethyl]carbamoyl]pyrrolidin-1-yl]-3,3-dimethyl-1-oxobutan-2-yl]carbamoyl]butyl)-3-methylphenyl]methoxy]pentan-3-yl]carbamoyl]-12-oxo-1-azatricyclo[6.4.1.0^[4,13]]trideca-4(13),5,7-trien-11-yl]carbamoyl]-1H-indole-5-carbonylphosphonate] | < 10 |
| Cc1ncsc1-c1ccc([C@H](C)NC(=O)[C@@H]2C[C@@H](O)CN2C(=O)[C@@H](NC(=O)CCCCCc2cccc(O[C@H](C)[C@H](CCC(N)=O)NC(=O)[C@@H]3Cc4cccc5c4N3C(=O)[C@@H](NC(=O)c3cc4cc(C(=O)P(=O)(O)O)ccc4[nH]3)CC5)c2)C(C)(C)C)cc1 [Compound I-219, 2-[[(2S,11S)-2-[[(3S,4R)-1-carbamoyl-4-[3-(5-[[(2S)-1-[(2S,4R)-4-hydroxy-2-[[(1S)-1-[4-(4-methyl-1,3-thiazol-5-yl)phenyl]ethyl]carbamoyl]pyrrolidin-1-yl]-3,3-dimethyl-1-oxobutan-2-yl]carbamoyl]pentyl)phenoxy]pentan-3-yl]carbamoyl]-12-oxo-1-azatricyclo[6.4.1.0^[4,13]]trideca-4(13),5,7-trien-11-yl]carbamoyl]-1H-indole-5-carbonylphosphonic acid] | 100 to 1000 |
| Cc1ncsc1-c1ccc([C@H](C)NC(=O)[C@@H]2C[C@@H](O)CN2C(=O)[C@@H](NC(=O)CCCCCc2cccc(CNC(=O)[C@H](CCC(N)=O)NC(=O)[C@@H]3Cc4cccc5c4N3C(=O)[C@@H](NC(=O)c3cc4cc(C(=O)P(=O)(O)O)ccc4[nH]3)CC5)c2)C(C)(C)C)cc1 [Compound I-220, 2-[[(2S,11S)-2-[[(1S)-3-carbamoyl-1-([[3-(5[[(2S)-1-[(2S,4R)-4-hydroxy-2-[[(1S)-1-[4-(4-methyl-1,3-thiazol-5-yl)phenyl]ethyl]carbamoyl]pyrrolidin-1-yl]-3,3-dimethyl-1-oxobutan-2-yl]carbamoyl]pentyl)phenyl]methyl]carbamoyl)propyl]carbamoyl]-12-oxo-1-azatricyclo[6.4.1.0^[4,13]]trideca-4(13),5,7-trien-11-yl]carbamoyl]-1H-indole-5-carbonylphosphonic acid] | 100 to 1000 |
| Cc1ncsc1-c1ccc(CNC(=O)[C@@H]2C[C@@H](O)CN2C(=O)[C@@H](NC(=O)CCCCc2cccc(OC[C@H](CCC(N)=O)NC(=O)[C@@H]3Cc4cccc5c4N3C(=O)[C@@H](NC(=O)c3cc4cc(C(=O)P(=O)(O)O)ccc4[nH]3)CC5)c2)C(C)(C)C)cc1 [Compound I-221] | 10 to 100 |
